# Columns and labels:
# [1] = test system: human prostate cancer LNCaP cells; assay: Cytotoxic action on LNCaP cells (WST-8, 96 hr); assay type: cell-based; conditions: 96 hr culture
# Method in brief: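 Viability read by WST-8 after 96 hr compound exposure of cells seeded overnight in 10% FBS/RPMI1640 (37° C, 5% CO2). Survival normalised to compound-free wells as 100%; IC50 obtained by straight-line interpolation between the two concentrations flanking 50% survival.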
# BRD4 protein = BRD4 protein (Homo sapiens (Human), UniProt O60885); assay: BRD4 protein degradation inducing action in LNCaP cells (immunofluorescence, 6 hr); assay type: cell-based; conditions: anti-BRD4 fluorescence intensity
# Method in brief: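 Read-out is BRD4 immunofluorescence intensity (560/572 nm) after 6 hr compound treatment of LNCaP cells in 10% FBS/RPMI1640, with fixation, permeabilization and anti-BRD4 staining. Linear interpolation between the two concentrations flanking 50% of untreated intensity gives DC50.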
SMILES,DC50 (BRD4 protein) [nM],IC50 [1] [nM]
"COC(=O)C[C@@H]1N=C(c2ccc(-c3cnc(C(=O)NCc4ccc(S(=O)(=O)Nc5ccc(C)c6c(C#N)c[nH]c56)cc4)c(C)c3)cc2)c2c(sc(C)c2C)-n2c(C)nnc21 [Example 91, methyl [(6S)-4-(4-{6-[({4-[(3-cyano-4-methyl-1H-indol-7-yl)sulfamoyl]phenyl}methyl)carbamoyl]-5-methylpyridin-3-yl}phenyl)-2,3,9-trimethyl-6H-thieno[3,2-f][1,2,4]triazolo[4,3-a][1,4]diazepin-6-yl]acetate]",0.029,0.26
"COC(=O)C[C@@H]1N=C(c2ccc(-c3ccc(C(=O)NCc4ccc(S(=O)(=O)Nc5ccc(C)c6c(C#N)c[nH]c56)c(F)c4)cc3)cc2)c2c(sc(C)c2C)-n2c(C)nnc21 [Example 25, methyl [(6S)-4-{4′-[({4-[(3-cyano-4-methyl-1H-indol-7-yl)sulfamoyl]-3-fluorophenyl}methyl)carbamoyl][1,1′-biphenyl]-4-yl}-2,3,9-trimethyl-6H-thieno[3,2-f][1,2,4]triazolo[4,3-a][1,4]diazepin-6-yl]acetate]",0.16,0.24
"COC(=O)C[C@@H]1N=C(c2ccc(-c3ccc(C(=O)N[C@H](C)c4ccc(S(=O)(=O)Nc5ccc(C)c6c(C#N)c[nH]c56)cc4)c(F)c3F)cc2)c2c(sc(C)c2C)-n2c(C)nnc21 [Example 99, methyl [(6S)-4-(4′-{[(1R)-1-{4-[(3-cyano-4-methyl-1H-indol-7-yl)sulfamoyl]phenyl}ethyl]carbamoyl}-2′,3′-difluoro[1,1′-biphenyl]-4-yl)-2,3,9-trimethyl-6H-thieno[3,2-f][1,2,4]triazolo[4,3-a][1,4]diazepin-6-yl]acetate]",0.091,0.14
"COC(=O)C[C@@H]1N=C(c2ccc(-c3ccc(C(=O)NCc4ccc(S(=O)(=O)Nc5ccc(C)c6c(C#N)c[nH]c56)cc4)c(Cl)c3)cc2)c2c(sc(C)c2C)-n2c(C)nnc21 [Example 3, methyl [(6S)-4-{3′-chloro-4′-[({4-[(3-cyano-4-methyl-1H-indol-7-yl)sulfamoyl]phenyl}methyl)carbamoyl][1,1′-biphenyl]-4-yl}-2,3,9-trimethyl-6H-thieno[3,2-f][1,2,4]triazolo[4,3-a][1,4]diazepin-6-yl]acetate]",0.42,0.092
"COC(=O)C[C@@H]1N=C(c2ccc(-c3cc(C)c(C(=O)NCc4ccc(S(=O)(=O)Nc5ccc(C)c6c(C#N)c[nH]c56)cc4)cc3F)cc2)c2c(sc(C)c2C)-n2c(C)nnc21 [Example 83, methyl [(6S)-4-{4′-[({4-[(3-cyano-4-methyl-1H-indol-7-yl)sulfamoyl]phenyl}methyl)carbamoyl]-2′-fluoro-5′-methyl[1,1′-biphenyl]-4-yl}-2,3,9-trimethyl-6H-thieno[3,2-f][1,2,4]triazolo[4,3-a][1,4]diazepin-6-yl]acetate]",0.25,0.33
"Cc1sc2c(c1C)C(c1ccc(-c3ccc(C(=O)NCc4ccc(S(=O)(=O)Nc5ccc(C)c6c(C#N)c[nH]c56)cc4)cc3)cc1)=N[C@@H](CC#N)c1nnc(C)n1-2 [Example 73, N-({4-[(3-cyano-4-methyl-1H-indol-7-yl)sulfamoyl]phenyl}methyl)-4′-[(6S)-6-(cyanomethyl)-2,3,9-trimethyl-6H-thieno[3,2-f][1,2,4]triazolo[4,3-a][1,4]diazepin-4-yl][1,1-biphenyl]-4-carboxamide]",0.75,1.7
"COC(=O)C[C@@H]1N=C(c2ccc(-c3cnc(C(=O)NCCc4ccc(S(=O)(=O)Nc5ccc(C)c6c(C#N)c[nH]c56)cc4)cn3)cc2)c2c(sc(C)c2C)-n2c(C)nnc21 [Example 102, methyl [(6S)-4-(4-{5-[(2-{4-[(3-cyano-4-methyl-1H-indol-7-yl)sulfamoyl]phenyl}ethyl)carbamoyl]pyrazin-2-yl}phenyl)-2,3,9-trimethyl-6H-thieno[3,2-f][1,2,4]triazolo[4,3-a][1,4]diazepin-6-yl]acetate]",0.036,0.071
"COC(=O)C[C@@H]1N=C(c2ccc(-c3ccc(C(=O)NCc4ccc(S(=O)(=O)Nc5ccc(C)c6c(C#N)c[nH]c56)cc4)cc3F)cc2)c2c(sc(C)c2C)-n2c(C)nnc21 [Example 45, methyl [(6S)-4-{4′-[({4-[(3-cyano-4-methyl-1H-indol-7-yl)sulfamoyl]phenyl}methyl)carbamoyl]-2′-fluoro[1,1′-biphenyl]-4-yl}-2,3,9-trimethyl-6H-thieno[3,2-f][1,2,4]triazolo[4,3-a][1,4]diazepin-6-yl]acetate]",0.19,0.22
"Cc1sc2c(c1C)C(c1ccc(-c3ccc(C(=O)NCc4ccc(S(=O)(=O)Nc5ccc(C)c6c(C#N)c[nH]c56)cc4)cc3)cc1)=N[C@@H](C)c1nnc(C)n1-2 [Example 32, N-({4-[(3-cyano-4-methyl-1H-indol-7-yl)sulfamoyl]phenyl}methyl)-4′-[(6S)-2,3,6,9-tetramethyl-6H-thieno[3,2-f][1,2,4]triazolo[4,3-a][1,4]diazepin-4-yl][1,1′-biphenyl]-4-carboxamide]",0.42,0.69
"COC(=O)C[C@@H]1N=C(c2ccc(-c3ccc(C(=O)N[C@H](C)c4ccc(S(=O)(=O)Nc5ccc(C)c6c(C#N)c[nH]c56)cc4)cc3)cc2)c2c(sc(C)c2C)-n2c(C)nnc21 [Example 26, methyl [(6S)-4-(4′-{[(1R)-1-{4-[(3-cyano-4-methyl-1H-indol-7-yl)sulfamoyl]phenyl}ethyl]carbamoyl}[1,1′-biphenyl]-4-yl)-2,3,9-trimethyl-6H-thieno[3,2-f][1,2,4]triazolo[4,3-a][1,4]diazepin-6-yl]acetate]",0.14,0.1
"COC(=O)C[C@@H]1N=C(c2ccc(-c3cnc(C(=O)NCc4ccc(S(=O)(=O)Nc5ccc(C)c6c(C#N)c[nH]c56)cc4)cc3C)cc2)c2c(sc(C)c2C)-n2c(C)nnc21 [Example 101, methyl [(6S)-4-(4-{6-[({4-[(3-cyano-4-methyl-1H-indol-7-yl)sulfamoyl]phenyl}methyl)carbamoyl]-4-methylpyridin-3-yl}phenyl)-2,3,9-trimethyl-6H-thieno[3,2-f][1,2,4]triazolo[4,3-a][1,4]diazepin-6-yl]acetate]",0.15,0.27

# Second part, led by results:
DC50 (BRD4 protein) [nM],SMILES,IC50 [1] [nM]
0.42,"CCc1ccc(NS(=O)(=O)c2ccc(CNC(=O)c3ccc(-c4ccc(C5=N[C@@H](CC(=O)OC)c6nnc(C)n6-c6sc(C)c(C)c65)cc4)c(Cl)c3)cc2)c2[nH]cc(C#N)c12 [Example Compound 116, methyl [(6S)-4-{2′-chloro-4′-[({4-[(3-cyano-4-ethyl-1H-indol-7-yl)sulfamoyl]phenyl}methyl)carbamoyl][1,1′-biphenyl]-4-yl}-2,3,9-trimethyl-6H-thieno[3,2-f][1,2,4]triazolo[4,3-a][1,4]diazepin-6-yl]acetate]",0.65
0.082,"CCc1ccc(NS(=O)(=O)c2ccc([C@@H](C)NC(=O)c3ccc(-c4ccc(C5=N[C@@H](CC(=O)OC)c6nnc(C)n6-c6sc(C)c(C)c65)cc4)cn3)cc2)c2[nH]cc(C#N)c12 [Example 109, methyl {(6S)-4-[4-(6-{[(1R)-1-{4-[(3-cyano-4-ethyl-1H-indol-7-yl)sulfamoyl]phenyl}ethyl]carbamoyl}pyridin-3-yl)phenyl]-2,3,9-trimethyl-6H-thieno[3,2-f][1,2,4]triazolo[4,3-a][1,4]diazepin-6-yl}acetate]",0.36
0.16,"CCc1ccc(NS(=O)(=O)c2ccc(CNC(=O)c3ccc(-c4ccc(C5=N[C@@H](CC(=O)OC)c6nnc(C)n6-c6sc(C)c(C)c65)cc4)c(C)c3)cc2)c2[nH]cc(C#N)c12 [Example Compound 117, methyl [(6S)-4-{4′-[({4-[(3-cyano-4-ethyl-1H-indol-7-yl)sulfamoyl]phenyl}methyl)carbamoyl]-2′-methyl[1,1′-biphenyl]-4-yl}-2,3,9-trimethyl-6H-thieno[3,2-f][1,2,4]triazolo[4,3-a][1,4]diazepin-6-yl]acetate]",0.41
0.38,"CCc1ccc(NS(=O)(=O)c2ccc(CNC(=O)c3ccc(-c4ccc(C5=N[C@@H](CC(=O)OC(C)(C)C)c6nnc(C)n6-c6sc(C)c(C)c65)cc4)cc3)cc2)c2[nH]cc(C#N)c12 [Example Compound 135, t-butyl [(6S)-4-{4′-[({4-[(3-cyano-4-ethyl-1H-indol-7-yl)sulfamoyl]phenyl}methyl)carbamoyl][1,1′-biphenyl]-4-yl}-2,3,9-trimethyl-6H-thieno[3,2-f][1,2,4]triazolo[4,3-a][1,4]diazepin-6-yl]acetate]",0.66
0.17,"Cc1sc2c(c1C)C(c1ccc(-c3ccc(C(=O)NCc4ccc(S(=O)(=O)Nc5ccc(C)c6c(C#N)c[nH]c56)cc4)nc3)cc1)=N[C@@H](CC(=O)OC(C)(C)C)c1nnc(C)n1-2 [Example Compound 145, t-butyl [(6S)-4-(4-{6-[({4-[(3-cyano-4-methyl-1H-indol-7-yl)sulfamoyl]phenyl}methyl)carbamoyl]pyridin-3-yl}phenyl)-2,3,9-trimethyl-6H-thieno[3,2-f][1,2,4]triazolo[4,3-a][1,4]diazepin-6-yl]acetate]",0.44
0.13,"CCc1ccc(NS(=O)(=O)c2ccc(CCNC(=O)c3ccc(-c4ccc(C5=N[C@@H](CC(=O)OC(C)(C)C)c6nnc(C)n6-c6sc(C)c(C)c65)cc4)cc3)cc2)c2[nH]cc(C#N)c12 [Example Compound 137, t-butyl [(6S)-4-{4′-[(2-{4-[(3-cyano-4-ethyl-1H-indol-7-yl)sulfamoyl]phenyl}ethyl)carbamoyl][1,1′-biphenyl]-4-yl}-2,3,9-trimethyl-6H-thieno[3,2-f][1,2,4]triazolo[4,3-a][1,4]diazepin-6-yl]acetate]",0.48

# Source: patent publication US11890288B2, “Sulfonamide or sulfinamide compound having effect of inducing BRD4 protein degradation and pharmaceutical use thereof” (MITSUBISHI TANABE PHARMA CORPORATION, priority 2020, dated 2024)
